Measured values reported in the OligoGym collection.
After the bases stand the sugars from the 5' end (letter, count) and the backbone: PS all phosphorothioate, else s phosphorothioate and o phosphodiester by linkage. Methylation of C is not given here. l = locked nucleic acid (LNA); d = 2'-deoxy (DNA)

Target: SNHG14
Conditions: ASO
[1] = Mouse Primary Neuronal Cell, 0.005 µM

| Sequence | target mRNA inhibition (Human Neuronal Cell, 0.2 µM) | target mRNA inhibition (Human Neuronal Cell, 1 µM) | target mRNA inhibition (Human Neuronal Cell, 7.5 µM) | also measured |
| --- | --- | --- | --- | --- |
| AGCTCTAAACCTTCAA (sugars l3 d10 l3, PS) | 40% | 12% |  |  |
| TTATAGCCATTCTATCT (sugars l3 d9 l1 d1 l3, PS) |  |  | 54% |  |
| ATATTGATTCAATTCCC (sugars lddllddddddlddlll, PS) |  |  | 62% |  |
| TTACCTACATCTCATAC (sugars l3 d11 l3, PS) | 0% | 5% |  | target mRNA inhibition (Human Neuronal Cell, 5 µM): 21%; target mRNA inhibition [1]: 91.3% |
| AATTTTTTTCTTACTATCTT (sugars llddlldddddddldlldll, PS) |  |  | 61% |  |
| TTTATCTATTTAATTTACA (sugars l4 d13 l2, PS) | 7% | 6% |  |  |
| GTTACCTACATCTCAT (sugars l2 d12 l2, PS) | -6% | 20% |  | target mRNA inhibition (Human Neuronal Cell, 5 µM): 31%; target mRNA inhibition [1]: 84.2% |
| TACTATACTTTCCTCT (sugars l2 d10 l4, PS) | 59% | 60% |  |  |
| AGCAACATTATTAACCAC (sugars l1 d3 l1 d7 l6, PS) |  |  | 41% |  |
| CACTAATAATTCACTTT (sugars l4 d11 l2, PS) | 31% | 49% |  |  |
| TTTTTTCTTACTATCTTCAA (sugars ldllldldddddddddldll, PS) |  |  | 58% |  |
| ACTCTGCAATACACCAA (sugars lldllddddddllddll, PS) |  |  | 38% |  |
| GCTTCATATTTCTCCA (sugars l2 d12 l2, PS) | 57% |  |  |  |
| AAAATTATTTATACACCATC (sugars ldlllllddddddlldddll, PS) |  |  | 61% |  |
| CTGTTTATACCCTTTCCA (sugars l1 d3 l1 d11 l2, PS) |  |  | 50% |  |
| ACTGTTTATACCCTTTCC (sugars l2 d14 l2, PS) | 36% | 50% |  |  |
| TAAAATTATTTATACACCAT (sugars l2 d1 l2 d11 l4, PS) |  |  | 49% |  |
| ACTTAATTATACTTCC (sugars l4 d10 l2, PS) | 62% | 64% |  |  |
| TTTACACTTAATTATACTTC (sugars lllddldddddddlldllll, PS) |  |  | 15% |  |
| ACATCTCATACTTGCT (sugars l4 d10 l2, PS) |  |  |  | target mRNA inhibition [1]: 94.8% |
| TTACACTTAATTATACTTCC (sugars l1 d5 l1 d9 l4, PS) |  |  | 61% |  |
| CTTTCCATTTATTTCCATT (sugars lddddldddddddddldll, PS) |  |  | 59% |  |

| Sequence | target mRNA inhibition (Human Neuronal Cell, 0.2 µM) | target mRNA inhibition (Human Neuronal Cell, 1 µM) | target mRNA inhibition (Human Neuronal Cell, 7.5 µM) | also measured |
| --- | --- | --- | --- | --- |
| TTTATACCTTTCTTTAACCC (sugars lddddlddddddddddldll, PS) |  |  | 63% |  |
| ATCATTCTCAACAATTA (sugars l4 d7 l6, PS) |  |  | 17% |  |
| GTTTCCATCTACTATTAAT (sugars llddlddddddddddldll, PS) |  |  | 59% |  |
| ACCACCTTAAGTAACA (sugars l4 d10 l2, PS) | 27% | 33% |  |  |
| ATTTACACTTAATTATACTT (sugars lllldllddddddlldddll, PS) |  |  | 38% |  |
| GCAACATTATTAACCACCT (sugars ldddddddddddldlddll, PS) |  |  | 41% |  |
| CCATTTATTTCCATTTAT (sugars l3 d12 l3, PS) | 38% | 59% |  |  |
| CTTCAAGAATTCTCTC (sugars l2 d10 l4, PS) | 44% | 43% |  |  |
| GCACATTCTTTCTATACC (sugars l1 d12 l1 d2 l2, PS) |  |  | 47% |  |
| ACACATCTTGTATACA (sugars l4 d10 l2, PS) | 49% | 56% |  |  |
| TTCTGTATACACCATCC (sugars l1 d1 l1 d11 l3, PS) |  |  | 58% |  |
| CTATTCTCAGTATTAT (sugars l3 d10 l3, PS) | 19% | 13% |  |  |
| AAATTTCCAAACCTTTC (sugars l2 d11 l4, PS) | 42% | 53% |  |  |
| CCACTGATTTCCTTAAA (sugars l4 d11 l2, PS) | 40% | 57% |  |  |
| GCACATTCTTTCTATACC (sugars l1 d4 l1 d9 l3, PS) |  |  | 59% |  |
| ACATCTCATACTTGCTT (sugars l2 d13 l2, PS) | 1% | 8% |  | target mRNA inhibition (Human Neuronal Cell, 5 µM): 7%; target mRNA inhibition [1]: 90.7% |
| GCTTCTACTTAAATAT (sugars l3 d10 l3, PS) | 27% | 21% |  |  |
| TTATAGCCATTCTATCT (sugars ldddlddddddldddll, PS) |  |  | 42% |  |
| TTTTTTTCTTACTATCTTCA (sugars l1 d2 l2 d13 l2, PS) |  |  | 43% |  |
| AGTTCTACTATACTTTC (sugars ldlldddddddldllll, PS) |  |  | 30% |  |
| AGTCCTTCCTTTAACCA (sugars l2 d13 l2, PS) | 21% | 41% |  |  |
